Assays:
HBV core protein = target: T1, HBV core protein (UniProt P03146); test: Biochemical capsid assembly assay (fluorescence quenching); set-up: species or system hepatitis B virus; details: read-out: Assembly Activity (IC50); BODIPY-FL labelled core protein, 300 μM NaCl, read 6 min after start
T1 construct: fused on or other part: BODIPY-FL maleimide label on the C-terminal Cys150
Summary of the method: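 Assembly-induced fluorescence quenching (477/525 nm) was measured 6 min after NaCl addition ([…]), against 2.5 M and 0 M NaCl controls. The labelled C150 core dimer (truncated at 149) at 1.0-2.0 μM in HEPES pH 7.5 was tested with eight half-log compound dilutions, top 100, 31.6 or 10 μM. EC50 was obtained by non-linear fit from triplicates run three times.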

HBV = test: Determination of HBV DNA from the supernatants of HepAD38 cells (anti-HBV activity); type: cell-based, hepatitis B virus; details: Hepatitis B virus, 144 h; HBV DNA in HepAD38 supernatant, day 6, qPCR; read-out: Cell Activity (EC50)
Summary of the method: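 Supernatant viral DNA was measured by LightCycler qPCR, calibrated with pCH-9/3091 plasmid, 6 days after tetracycline-free HepAD38 cultures received half-log serial compound dilutions; untreated and tetracycline-treated cells served as controls; EC50 was fitted by non-linear regression.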

[1] = Cell viability assay (AlamarBlue) in HepAD38 cells; details: human

T1 sequence (P03146 whole entry, looked up, the tested form may be a part): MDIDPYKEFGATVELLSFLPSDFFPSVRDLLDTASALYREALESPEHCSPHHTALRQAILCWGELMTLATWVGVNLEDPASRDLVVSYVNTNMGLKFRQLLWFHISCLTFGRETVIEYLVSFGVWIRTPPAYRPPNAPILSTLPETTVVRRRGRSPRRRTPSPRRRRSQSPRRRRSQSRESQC

Structure (SMILES) | IC50 (HBV core protein) | EC50 (HBV) | CC50 at 6 days [1]
CN(CC1(O)CCC1)C(=O)c1n[nH]c2c1CN(C(=O)c1cc3ccccc3[nH]1)CC2 [Example 254, N-[(1-hydroxycyclobutyl)methyl]-5-(1H-indole-2-carbonyl)-N-methyl-1H,4H,5H,6H,7H-pyrazolo[4,3-c]pyridine-3-carboxamide] | < 5 µM | < 1000 nM | > 10 µM
CCOCCN(C)C(=O)c1n[nH]c2c1CN(C(=O)c1cc3ccccc3[nH]1)CC2 [Example 255, N-(2-ethoxyethyl)-5-(1H-indole-2-carbonyl)-N-methyl-1H,4H,5H,6H,7H-pyrazolo[4,3-c]pyridine-3-carboxamide] | < 5 µM | < 1000 nM | > 10 µM
CN(CC(O)C1CC1)C(=O)c1n[nH]c2c1CN(C(=O)c1cc3ccccc3[nH]1)CC2 (stereo not drawn) [Example 256, N-(2-cyclopropyl-2-hydroxyethyl)-5-(1H-indole-2-carbonyl)-N-methyl-1H,4H,5H,6H,7H-pyrazolo[4,3-c]pyridine-3-carboxamide] | < 5 µM | < 1000 nM | > 10 µM
COCC1(N(C)C(=O)c2n[nH]c3c2CN(C(=O)c2cc4c(Cl)cccc4[nH]2)CC3)CC1 [Example 262, 5-(4-chloro-1H-indole-2-carbonyl)-N-[1-(methoxymethyl)cyclopropyl]-N-methyl-1H,4H,5H,6H,7H-pyrazolo[4,3-c]pyridine-3-carboxamide] | < 5 µM | < 1000 nM | > 10 µM
COCC1(N(C)C(=O)c2n[nH]c3c2CN(C(=O)c2cc4ccc(Cl)cc4[nH]2)CC3)CC1 [Example 263, 5-(6-chloro-1H-indole-2-carbonyl)-N-[1-(methoxymethyl)cyclopropyl]-N-methyl-1H,4H,5H,6H,7H-pyrazolo[4,3-c]pyridine-3-carboxamide] | < 5 µM | < 1000 nM | > 10 µM
COCC1(N(C)C(=O)c2n[nH]c3c2CN(C(=O)c2cc4c(Cl)cc(F)cc4[nH]2)CC3)CC1 [Example 264, 5-(4-chloro-6-fluoro-1H-indole-2-carbonyl)-N-[1-(methoxymethyl)cyclopropyl]-N-methyl-1H,4H,5H,6H,7H-pyrazolo[4,3-c]pyridine-3-carboxamide] | < 5 µM | < 1000 nM | > 10 µM
COCC1(N(C)C(=O)c2n[nH]c3c2CN(C(=O)c2cc4cc(F)c(Cl)cc4[nH]2)CC3)CC1 [Example 265, 5-(6-chloro-5-fluoro-1H-indole-2-carbonyl)-N-[1-(methoxymethyl)cyclopropyl]-N-methyl-1H,4H,5H,6H,7H-pyrazolo[4,3-c]pyridine-3-carboxamide] | < 5 µM | < 1000 nM | > 10 µM
COCC1(N(C)C(=O)c2n[nH]c3c2CN(C(=O)c2cc4c(F)cc(F)cc4[nH]2)CC3)CC1 [Example 266, 5-(4,6-difluoro-1H-indole-2-carbonyl)-N-[1-(methoxymethyl)cyclopropyl]-N-methyl-1H,4H,5H,6H,7H-pyrazolo[4,3-c]pyridine-3-carboxamide] | < 5 µM | < 1000 nM | > 10 µM
COCC1(N(C)C(=O)c2n[nH]c3c2CN(C(=O)c2cc4c(F)c(F)ccc4[nH]2)CC3)CC1 [Example 267, 5-(4,5-difluoro-1H-indole-2-carbonyl)-N-[1-(methoxymethyl)cyclopropyl]-N-methyl-1H,4H,5H,6H,7H-pyrazolo[4,3-c]pyridine-3-carboxamide] | < 5 µM | < 1000 nM | > 10 µM
COCC1(N(C)C(=O)c2n[nH]c3c2CN(C(=O)c2cc4c(C)cc(F)cc4[nH]2)CC3)CC1 [Example 269, 5-(6-fluoro-4-methyl-1H-indole-2-carbonyl)-N-[1-(methoxymethyl)cyclopropyl]-N-methyl-1H,4H,5H,6H,7H-pyrazolo[4,3-c]pyridine-3-carboxamide] | < 5 µM | < 1000 nM | > 10 µM
CCc1cccc2[nH]c(C(=O)N3CCc4[nH]nc(C(=O)N(C)C5(COC)CC5)c4C3)cc12 [Example 270, 5-(4-ethyl-1H-indole-2-carbonyl)-N-[1-(methoxymethyl)cyclopropyl]-N-methyl-1H,4H,5H,6H,7H-pyrazolo[4,3-c]pyridine-3-carboxamide] | < 5 µM | < 1000 nM | > 10 µM
CCc1cc(F)cc2[nH]c(C(=O)N3CCc4[nH]nc(C(=O)N(C)C5(CO)CC5)c4C3)cc12 [Example 271, 5-(4-ethyl-6-fluoro-1H-indole-2-carbonyl)-N-[1-(hydroxymethyl)cyclopropyl]-N-methyl-1H,4H,5H,6H,7H-pyrazolo[4,3-c]pyridine-3-carboxamide] | < 5 µM | < 1000 nM | > 10 µM
CCc1cc(F)cc2[nH]c(C(=O)N3CCc4[nH]nc(C(=O)N(C)C5(COC)CC5)c4C3)cc12 [Example 272, 5-(4-ethyl-6-fluoro-1H-indole-2-carbonyl)-N-[1-(methoxymethyl)cyclopropyl]-N-methyl-1H,4H,5H,6H,7H-pyrazolo[4,3-c]pyridine-3-carboxamide] | < 5 µM | < 1000 nM | > 10 µM
CCON=C(C)c1n[nH]c2c1CN(C(=O)c1cc3ccccc3[nH]1)CC2 [Example 273, ethoxy({1-[5-(1H-indole-2-carbonyl)-1H,4H,5H,6H,7H-pyrazolo[4,3-c]pyridin-3-yl]ethylidene})amine] | < 100 µM | 1000 to 25000 nM | > 10 µM
CON=C(C)c1n[nH]c2c1CN(C(=O)c1cc3ccccc3[nH]1)CC2 [Example 274, {1-[5-(1H-indole-2-carbonyl)-1H,4H,5H,6H,7H-pyrazolo[4,3-c]pyridin-3-yl]ethylidene}(methoxy)amine] | < 100 µM | 1000 to 25000 nM | > 10 µM
O=C(c1cc2ccccc2[nH]1)N1CCc2n[nH]c(C(=O)N3CCCCC34CC4)c2C1 [Example 279, 2-(3-{4-azaspiro[2.5]octane-4-carbonyl}-2H,4H,5H,6H,7H-pyrazolo[4,3-c]pyridine-5-carbonyl)-1H-indole] | < 5 µM | < 1000 nM | > 10 µM
CN(CCN)C(=O)c1[nH]nc2c1CN(C(=O)c1cc3ccccc3[nH]1)CC2 [Example 280, N-(2-aminoethyl)-5-(1H-indole-2-carbonyl)-N-methyl-2H,4H,5H,6H,7H-pyrazolo[4,3-c]pyridine-3-carboxamide] | < 100 µM | < 1000 nM | > 10 µM
CNC(=O)c1n[nH]c2c1CN(C(=O)c1cc3ccccc3[nH]1)CC2 [Example 285, 5-(1H-indole-2-carbonyl)-N-methyl-1H,4H,5H,6H,7H-pyrazolo[4,3-c]pyridine-3-carboxamide] | < 100 µM | 1000 to 25000 nM | > 10 µM
CN(C(=O)c1n[nH]c2c1CN(C(=O)c1cc3c(Cl)cccc3[nH]1)CC2)C1(CO)CC1 [Example 290, 5-(4-chloro-1H-indole-2-carbonyl)-N-[1-(hydroxymethyl)cyclopropyl]-N-methyl-1H,4H,5H,6H,7H-pyrazolo[4,3-c]pyridine-3-carboxamide] | < 5 µM | < 1000 nM | > 10 µM
CCc1cccc2[nH]c(C(=O)N3CCc4[nH]nc(C(=O)N(C)C5(CO)CC5)c4C3)cc12 [Example 291, 5-(4-ethyl-1H-indole-2-carbonyl)-N-[1-(hydroxymethyl)cyclopropyl]-N-methyl-1H,4H,5H,6H,7H-pyrazolo[4,3-c]pyridine-3-carboxamide] | < 5 µM | < 1000 nM | > 10 µM
CN(CCC#N)C(=O)c1n[nH]c2c1CN(C(=O)c1cc3ccccc3[nH]1)CC2 [Example 292, N-(2-cyanoethyl)-5-(1H-indole-2-carbonyl)-N-methyl-1H,4H,5H,6H,7H-pyrazolo[4,3-c]pyridine-3-carboxamide] | < 5 µM | 1000 to 25000 nM | > 10 µM
CCN(C(=O)c1n[nH]c2c1CN(C(=O)c1cc3ccccc3[nH]1)CC2)C1(COC)CC1 [Example 296, N-ethyl-5-(1H-indole-2-carbonyl)-N-[1-(methoxymethyl)cyclopropyl]-1H,4H,5H,6H,7H-pyrazolo[4,3-c]pyridine-3-carboxamide] | < 5 µM | < 1000 nM | > 10 µM
COCC1(N(C)C(=O)c2n[nH]c3c2CN(C(=O)c2cc4c(F)ccc(F)c4[nH]2)CC3)CC1 [Example 297, 5-(4,7-difluoro-1H-indole-2-carbonyl)-N-[1-(methoxymethyl)cyclopropyl]-N-methyl-1H,4H,5H,6H,7H-pyrazolo[4,3-c]pyridine-3-carboxamide] | < 5 µM | < 1000 nM | > 10 µM
COCC1(N(C)C(=O)c2n[nH]c3c2CN(C(=O)c2cc4c(C(F)F)cc(F)cc4[nH]2)CC3)CC1 [Example 298, 5-[4-(difluoromethyl)-6-fluoro-1H-indole-2-carbonyl]-N-[1-(methoxymethyl)cyclopropyl]-N-methyl-1H,4H,5H,6H,7H-pyrazolo[4,3-c]pyridine-3-carboxamide] | < 5 µM | < 1000 nM | > 10 µM
COCC1(N(C)C(=O)c2n[nH]c3c2CN(C(=O)c2cc4c(C(F)F)cccc4[nH]2)CC3)CC1 [Example 299, 5-[4-(difluoromethyl)-1H-indole-2-carbonyl]-N-[1-(methoxymethyl)cyclopropyl]-N-methyl-1H,4H,5H,6H,7H-pyrazolo[4,3-c]pyridine-3-carboxamide] | < 5 µM | < 1000 nM | > 10 µM

Reference: US11236087B2, “Highly active pyrazolo-piperidine substituted indole-2-carboxamides active against the hepatitis B virus (HBV)” (AiCuris GmbH & Co. KG, priority 2017, dated 2022)
